One block for each compound: values may come before it.
Columns and labels:
[1] = test system: atrial muscle of anesthetized thoracotomy dog; assay: Effective refractory period (ERP) in anesthetized thoracotomy dog; assay type: in vivo; settings: for Measurement Value of ERP: mean
Description: (1) An anesthetized thoracotomy dog was used for the present experiment. After opening brisket at a median line and cutting epicardium, bipolar electrodes for determination of a potential wave form were respectively stitched at the free walls of right and left atriums. Further, a wire electrode was inserted in the free wall of a right atrium to be fixed and used for electrical simulation.
(2) A program electrical stimulation equipment was connected with the electrode for electrical stimulation at the right atrium, the electrical stimulation was carried out at a stimulation periodical length of 500 mess, and a threshold for the electrical stimulation was measured. The electrical stimulation intensity for the experiments below was set to carry out stimulation at 3-fold of this threshold. However, when the threshold was 0.7 V or less, the electrical stimulation was carried out at 2.0 V. Effective refractory period (ERP) provided early premature stimulation (S2) after the basic stimulation (S1) of 10 times, and the longest linking period in which atrium potential was not generated by the premature stimulation was referred to as ERP, while shortening the linking period (S1-S2) by 5 mess. Similar experiments were also carried out for the respective basic stimulation length (BCL) of 400, 300, 250 and 200 mess (control experiment: 1 series). After carrying out 2 times or more of the control experiments and confirming that ERP was stable, the tested substance was subsequently administered, and similar measurement was carried out. After the tested substance was administered once intravenously for 5 minutes, its keeping dose was subsequently administered intravenously. After 10 minutes of the administration start of the keeping dose, ERP was measured in the respective stimulation frequency. After completion of the one series of measurements, the concentration of the tested substance was increased and the similar experiments were repeated. The ERP and conduction time in the atrium in the respective stimulation frequency were compared with various indices under control condition. The result is shown by mean.

rabbit atrial muscle = assay: Assessment for rabbit atrial muscle, Vmax; settings: Test Example 4, right atrial muscle, stimulation frequency 4 Hz, 15 minutes
Description: The specimen of the right atrial muscle which was enucleated from rabbit was used for the present experiment. The electrical stimulation was applied for the right atrial muscle which was enucleated, under conditions: a stimulation duration of 1 mess; a stimulation frequency of 4 Hz; and a stimulation intensity of about 1.2-fold of the threshold. The stimulation was provided from 30 minutes to 60 minutes before start of the experiment, and the condition of the specimen was stabilized. The action potential was recorded according to a glass microelectrode method. 3 M KCl was charged in the glass electrode, inserted in the specimen of the right atrium, and the action potential was recorded. Vmax is the parameter of the maximum upstroke slope of the action potential recorded, and a value which was automatically calculated by an action potential analysis soft (CAPA 1.23 manufactured by Physiotec. Co., Ltd.) was used. After the action potential in a normal Tyrode solution was recorded as control, the action potential after flowing the tested substances at respective concentrations for 15 minutes was recorded. The action of the tested substance for Vmax was calculated as an IC50 value.

[2] = test system: spontaneous nerve discharge of cut left saphenous nerve; assay: Suppression of spontaneous nerve discharge (ectopic firing); assay type: in vivo; settings: Test Example 5, rat, intravenous catheter, urethane anesthetized; for ED50: read-out: Ectopic Firing (ID50 mg/kg)
Description: In order to assess the suppression action for spontaneous nerve discharge, the experiment was carried out by a method below, referring to “Burchiel, K J., Exp. Nuerol., 102, 249-253 (1988)”. Namely, for the rat in which spontaneous discharge was observed, the left saphenous nerve was cut off nearby knee articulatio before 1 week or more, and around 3 mm of the nerve was cut off so that the nerve was not adhered again. The left saphenous nerve was exposed under urethane (1 g/kg body weight) anesthetized, and about 1 cm of adjacent portion from the cut portion was peeled from a periphery tissue. Further, a catheter was preliminarily inserted in the vein of a right neck for administration of a compound. The peeled nerve was mounted on a platinum hook electrode, and liquid paraffin was put on it so that the nerve was not dried. The electrode was connected with a fine electrode amplifier, and the value was recorded on a computer through an AD/converter from an oscilloscope. The nerve discharge recorded was assessed by the number of ignition per 10 seconds using an analysis soft (AcqKnowledge).

[3] = dose 0.1 mg/kg intravenously, BCL 200 msec
[4] = dose 0.1 mg/kg intravenously, BCL 300 msec
[5] = dose 0.1 mg/kg intravenously, BCL 400 msec
[6] = dose 0.1 mg/kg intravenously, BCL 500 msec
[7] = dose 0.3 mg/kg intravenously, BCL 200 msec
[8] = dose 0.3 mg/kg intravenously, BCL 300 msec
[9] = dose 0.3 mg/kg intravenously, BCL 400 msec
[10] = dose 0.3 mg/kg intravenously, BCL 500 msec
[11] = dose 1 mg/kg intravenously, BCL 200 msec
[12] = dose 1 mg/kg intravenously, BCL 300 msec
[13] = dose 1 mg/kg intravenously, BCL 400 msec
[14] = dose 1 mg/kg intravenously, BCL 500 msec
[15] = dose 0.1 mg/kg intravenously, BCL 250 msec
[16] = dose 0.3 mg/kg intravenously, BCL 250 msec

SMILES: O=c1[nH]cccc1CN1CCC(CCc2nccs2)CC1 [Example 109, 1-[(2-Oxo-1,2-dihydro-3-pyridinyl)methyl]-4-[2-(1,3-thiazol-2-yl)ethyl]piperidine]
Measurement Value of ERP [1, 3]: 110 ms
Measurement Value of ERP [1, 4]: 140 ms
Measurement Value of ERP [1, 5]: 165 ms
Measurement Value of ERP [1, 6]: 185 ms
Measurement Value of ERP [1, 7]: 130 ms
Measurement Value of ERP [1, 8]: 155 ms
Measurement Value of ERP [1, 9]: 185 ms
Measurement Value of ERP [1, 10]: 200 ms
Measurement Value of ERP [1, 11]: 150 ms
Measurement Value of ERP [1, 12]: 175 ms
Measurement Value of ERP [1, 13]: 215 ms
Measurement Value of ERP [1, 14]: 235 ms

SMILES: COc1ncccc1CCC1CCN(Cc2ccc[nH]c2=O)CC1 [Example 118, 1-[(2-Oxo-1,2-dihydro-3-pyridinyl)methyl]-4-[2-(2-methoxy-3-pyridyl)ethyl]piperidine]
Measurement Value of ERP [1, 7]: 130 ms
Measurement Value of ERP [1, 8]: 160 ms
Measurement Value of ERP [1, 9]: 180 ms
Measurement Value of ERP [1, 10]: 190 ms
Measurement Value of ERP [1, 12]: 190 ms
Measurement Value of ERP [1, 13]: 215 ms
Measurement Value of ERP [1, 14]: 220 ms

SMILES: O=c1[nH]cccc1CN1CCC(CCc2cccc3c2OCO3)CC1 [Example 128, 1-[(2-Oxo-1,2-dihydro-3-pyridinyl)methyl]-4-(2,3-methylenedioxyphenethyl)piperidine]
Measurement Value of ERP [1, 3]: 125 ms
Measurement Value of ERP [1, 4]: 160 ms
Measurement Value of ERP [1, 5]: 175 ms
Measurement Value of ERP [1, 6]: 185 ms
Measurement Value of ERP [1, 7]: 155 ms
Measurement Value of ERP [1, 8]: 180 ms
Measurement Value of ERP [1, 9]: 195 ms
Measurement Value of ERP [1, 10]: 210 ms
Measurement Value of ERP [1, 12]: 215 ms
Measurement Value of ERP [1, 13]: 250 ms
Measurement Value of ERP [1, 14]: 280 ms

SMILES: COc1ccccc1C(=O)CC1CCN(Cc2ccc[nH]c2=O)CC1 [Example 144, 1-[(2-Oxo-1,2-dihydro-3-pyridinyl)methyl]-4-[2-(2-methoxyphenyl)-2-oxoethyl]piperidine]
Measurement Value of ERP [1, 3]: 140 ms
Measurement Value of ERP [1, 15]: 155 ms
Measurement Value of ERP [1, 4]: 165 ms
Measurement Value of ERP [1, 5]: 190 ms
Measurement Value of ERP [1, 6]: 200 ms
Measurement Value of ERP [1, 7]: 155 ms
Measurement Value of ERP [1, 16]: 165 ms
Measurement Value of ERP [1, 8]: 180 ms
Measurement Value of ERP [1, 9]: 200 ms
Measurement Value of ERP [1, 10]: 215 ms

SMILES: C#CCN(CC#C)C(=O)C[C@H]1CCCCN1Cc1ccc[nH]c1=O [Example 191, N1,N1-Di(2-propynyl)-2-[(2R)-1-[(2-oxo-1,2-dihydro-3-pyridinyl)methyl]-2-piperidyl]acetamide]
Measurement Value of ERP [1, 7]: 135 ms
Measurement Value of ERP [1, 8]: 155 ms
Measurement Value of ERP [1, 9]: 165 ms
Measurement Value of ERP [1, 10]: 175 ms
Percent change in ERP versus pre-dose control ([1]; dose 0.3 mg/kg, BCL 300 msec): 14.8%
Percent change in ERP versus pre-dose control ([1]; dose 0.3 mg/kg, BCL 400 msec): 6.5%
Percent change in ERP versus pre-dose control ([1]; dose 0.3 mg/kg, BCL 500 msec): 9.4%
Measurement Value of ERP [1, 11]: 150 ms
Measurement Value of ERP [1, 12]: 170 ms
Measurement Value of ERP [1, 13]: 185 ms
Measurement Value of ERP [1, 14]: 195 ms
Percent change in ERP versus pre-dose control ([1]; dose 1 mg/kg, BCL 300 msec): 25.9%
Percent change in ERP versus pre-dose control ([1]; dose 1 mg/kg, BCL 400 msec): 19.4%
Percent change in ERP versus pre-dose control ([1]; dose 1 mg/kg, BCL 500 msec): 21.9%

SMILES: C#CCN(CC#C)C(=O)C[C@H]1CCCCN1Cc1cccn(CC(F)(F)F)c1=O [Example 194, N1,N1-Di(2-propynyl)-2-[(2R)-1-[[2-oxo-1-(2,2,2-trifluoroethyl)-1,2-dihydro-3-pyridinyl)methyl]hexahydro-2-pyridinyl]acetamide]
Measurement Value of ERP [1, 3]: 110 ms
Measurement Value of ERP [1, 15]: 120 ms
Measurement Value of ERP [1, 4]: 135 ms
Measurement Value of ERP [1, 5]: 155 ms
Measurement Value of ERP [1, 6]: 165 ms
Measurement Value of ERP [1, 7]: 125 ms
Measurement Value of ERP [1, 16]: 126 ms
Measurement Value of ERP [1, 8]: 145 ms
Measurement Value of ERP [1, 9]: 165 ms
Measurement Value of ERP [1, 10]: 175 ms
Measurement Value of ERP [1, 11]: 145 ms
Measurement Value of ERP ([1]; dose 1 mg/kg intravenously, BCL 250 msec): 155 ms
Measurement Value of ERP [1, 12]: 170 ms
Measurement Value of ERP [1, 13]: 195 ms
Measurement Value of ERP [1, 14]: 210 ms

IC50 (rabbit atrial muscle; Oryctolagus cuniculus, 0.25 h): 17.5 µM
SMILES: O=c1[nH]cc(Cl)cc1CN1CCC(/C=C/c2ccccc2F)CC1 [Example 334, 1-[(5-Chloro-2-oxo-1,2-dihydro-3-pyridinyl)methyl]-4-[(E)-2-(2-fluorophenyl)-1-ethenyl]piperidine]
ED50 [2]: 0.03 mg/kg

IC50 (rabbit atrial muscle; Oryctolagus cuniculus, 0.25 h): 7.8 µM
SMILES: O=c1[nH]cc(F)cc1CN1CCC(/C=C/c2ccccc2F)CC1 [Example 335, 1-[(5-Fluoro-2-oxo-1,2-dihydro-3-pyridinyl)methyl]-4-[(E)-2-(2-fluorophenyl)-1-ethenyl]piperidine]
ED50 [2]: 0.034 mg/kg

SMILES: Cc1ccccc1/C=C/C1CCN(Cc2cc(Cl)c[nH]c2=O)CC1 [Example 337, 1-[(5-Chloro-2-oxo-1,2-dihydro-3-pyridinyl)methyl]-4-[(E)-2-(2-methylphenyl)-1-ethenyl]piperidine]
ED50 [2]: 0.3 mg/kg

SMILES: O=C(O)C(=O)O.O=c1[nH]cccc1CN1CCC(/C=C/c2ccccc2OCC2CCCCC2)CC1 [Example 343, 1-[(2-Oxo-1,2-dihydro-3-pyridinyl)methyl]-4-[(E)-2-[(2-cyclohexylmethyloxy)phenyl]-1-ethenyl]piperidine oxalate]
IC50 (rabbit atrial muscle): 30 µM
Ectopic Firing (ID50 mg/kg) [2]: 0.13 mg/kg

SMILES: O=C(O)C(=O)O.O=c1[nH]cccc1CN1CCC(/C=C\c2ccccc2OCC2CCCCC2)CC1 [Example 344, 1-[(2-Oxo-1,2-dihydro-3-pyridinyl)methyl]-4-[(Z)-2-[(2-cyclohexylmethyloxy)phenyl]-1-ethenyl]piperidine oxalate]
IC50 (rabbit atrial muscle): 30 µM
Ectopic Firing (ID50 mg/kg) [2]: 0.19 mg/kg

SMILES: O=C(O)C(=O)O.O=c1[nH]cc(F)cc1CN1CCC(/C=C/c2ccccc2OCC2CCCCC2)CC1 [Example 345, 1-[(5-Fluoro-2-oxo-1,2-dihydro-3-pyridinyl)methyl]-4-[(E)-2-[(2-cyclohexylmethyloxy)phenyl]-1-ethenyl]piperidine oxalate]
Ectopic Firing (ID50 mg/kg) [2]: 0.4 mg/kg

SMILES: O=C(O)C(=O)O.O=c1[nH]cccc1CN1CCC(C#Cc2ccccc2OCC2CCCCC2)CC1 [Example 349, 1-[(2-Oxo-1,2-dihydro-3-pyridinyl)methyl]-4-[2-[(2-cyclohexylmethyloxy)phenyl]-1-ethynyl]piperidine oxalate]
Ectopic Firing (ID50 mg/kg) [2]: 0.17 mg/kg

SMILES: N#Cc1c[nH]c(=O)c(CN2CCC(/C=C/c3ccccc3F)CC2)c1 [Example 351, 1-[(5-Cyano-2-oxo-1,2-dihydro-3-pyridinyl)methyl]-4-[(E)-2-(2-fluorophenyl)-1-ethenyl]piperidine]
ED50 [2]: 0.17 mg/kg
